Patent publication US20140073801A1, “PYRROLIDINE DERIVATIVES AS SELECTIVE GLYCOSIDASE INHIBITORS AND USES THEREOF” (Summit Corporation Plc, priority 2011, published 2014)

How the values were obtained:
Assay type in all cases: biochemical
[1] = molecular target: T1, human OGA (Homo sapiens, UniProt O60502); test: Determination of IC50 values for inhibition of human OGA
T1 construct: made in house
T1 sequence (O60502 1-916): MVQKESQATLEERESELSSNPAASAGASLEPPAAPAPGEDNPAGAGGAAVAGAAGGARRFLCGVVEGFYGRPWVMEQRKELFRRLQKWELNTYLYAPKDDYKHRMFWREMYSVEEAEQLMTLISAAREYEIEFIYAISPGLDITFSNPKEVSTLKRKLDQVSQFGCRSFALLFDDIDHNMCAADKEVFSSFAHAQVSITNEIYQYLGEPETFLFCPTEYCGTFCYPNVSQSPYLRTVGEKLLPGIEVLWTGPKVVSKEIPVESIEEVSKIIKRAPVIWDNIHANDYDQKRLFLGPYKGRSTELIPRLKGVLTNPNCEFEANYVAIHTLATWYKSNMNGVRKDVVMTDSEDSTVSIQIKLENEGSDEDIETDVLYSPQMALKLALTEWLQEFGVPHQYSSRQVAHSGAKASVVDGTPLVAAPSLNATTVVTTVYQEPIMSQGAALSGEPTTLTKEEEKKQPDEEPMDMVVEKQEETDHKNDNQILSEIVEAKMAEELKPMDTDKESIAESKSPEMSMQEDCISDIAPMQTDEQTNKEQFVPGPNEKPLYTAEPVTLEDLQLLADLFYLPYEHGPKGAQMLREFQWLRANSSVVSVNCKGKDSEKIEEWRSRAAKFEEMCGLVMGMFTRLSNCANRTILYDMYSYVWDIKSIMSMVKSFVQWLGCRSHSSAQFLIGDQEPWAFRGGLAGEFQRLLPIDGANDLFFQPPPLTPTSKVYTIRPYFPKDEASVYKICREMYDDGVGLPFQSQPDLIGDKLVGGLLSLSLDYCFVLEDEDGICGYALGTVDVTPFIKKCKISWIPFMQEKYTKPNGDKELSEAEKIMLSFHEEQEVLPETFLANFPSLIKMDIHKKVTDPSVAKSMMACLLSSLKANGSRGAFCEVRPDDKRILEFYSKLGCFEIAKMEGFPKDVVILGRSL
Protocol: Inhibitors identified from the screen described in Example 1 were evaluated for IC50 using a procedure adapted from Biochem. J. 2009, 420, 221-227. IC50 determination was carried out using a range of inhibitor concentrations from 300 μM to 0.003 μM or 100 μM to 0.001 μM. IC50 values were calculated using XLFit 4.

[2] = tested on: human β-hexosaminidase [human placenta] (HexA/B); test: Determination of IC50 values for inhibition of human β-hexosaminidase; details: ratio
Protocol: (§1) Inhibitors identified from the screen described in Example 1 were evaluated for IC50 against human β-hexosaminidase [human placenta, Sigma-Aldrich] using a range of inhibitor concentrations from 300 μM to 0.003 μM or 100 μM to 0.001 μM and the following reaction conditions:
(§2) Reactions were carried out at room temperature for thirty minutes and then quenched through the addition of 150 μl 0.5M Na2CO3. Fluorescence readings were taken at excitation wavelength 360 nm and emission wavelength 450 nm. IC50 values were calculated using XLFit 4. The selectivity ratio for inhibition of human O-GlcNAcase over human β-hexosaminidase is defined here as:
(§3) IC50(human β-hexosaminidase)/IC50(Human OGA)

[3] = molecular target: T2, human β-hexosaminidase [human placenta] (HexA/B); test: as above; details: human β-hexosaminidase, human placenta; room temperature, thirty minutes
T2 construct: other: human β-hexosaminidase, human placenta; room temperature, thirty minutes
Protocol: as §1, §2, §3

Compound | IC50 [1] [µM] | Selectivity: IC50(human β-hexosaminidase)/IC50(Human OGA) [2] | IC50 [3] [µM]
CCCCCCN1[C@H](CC(=O)NC)[C@H](O)[C@H](O)[C@@H]1CO [Compound A036, 2-((2R,3S,4R,5S)-1-hexyl-3,4-dihydroxy-5-(hydroxymethyl)pyrrolidin-2-yl)-N-methylacetamide] | 136 | 0.54 | 73
CCNC(=O)C[C@@H]1[C@@H](O)[C@H](O)[C@@H](CO)N1CCCc1ccc(Sc2ccccc2)cc1 [Compound A071, 2-((2R,3R,4R,5R)-3,4-dihydroxy-5-(hydroxymethyl)-1-(3-(4-(phenylthio)phenyl)propyl)pyrrolidin-2-yl)-N-ethylacetamide] | 0.007 | >42857 | > 300
CNC(=O)C[C@@H]1[C@H](O)[C@H](O)[C@@H](CO)N1CCCNS(=O)(=O)c1ccc(-c2ccccc2)cc1 [Compound A072, 2-((2R,3S,4R,5R)-1-(3-([1,1′-biphenyl]-4-ylsulfonamido)propyl)-3,4-dihydroxy-5-(hydroxymethyl)pyrrolidin-2-yl)-N-methylacetamide] | 0.002 | >150000 | > 300
CCCCCCN1[C@H](CO)[C@H](O)[C@@H](O)[C@H]1CC(=O)NCCO [Compound A030, 2-((2R,3S,4S,5R)-1-hexyl-3,4-dihydroxy-5-(hydroxymethyl)pyrrolidin-2-yl)-N-(2-hydroxyethyl)acetamide] | 94.9 | >3.16 | > 300
CCCCCCN1[C@H](CO)[C@@H](O)[C@H](O)[C@@H]1CC(=O)NCC [Compound A054, N-ethyl-2-((2S,3R,4R,5R)-1-hexyl-3,4-dihydroxy-5-(hydroxymethyl)pyrrolidin-2-yl)acetamide] | 6.98 | >42.98 | > 300
O=C(C[C@@H]1[C@H](O)[C@H](O)[C@@H](CO)N1CCCc1ccccc1)NCCO [Compound A029, 2-((2R,3S,4R,5R)-3,4-dihydroxy-5-(hydroxymethyl)-1-(3-phenylpropyl)pyrrolidin-2-yl)-N-(2-hydroxyethyl)acetamide] | 125 | >2.38 | > 300
CCCCCCN1[C@H](CC(=O)NCC(C)C)[C@H](O)[C@H](O)[C@H]1CO [Compound A027, 2-((2R,3S,4R,5R)-1-hexyl-3,4-dihydroxy-5-(hydroxymethyl)pyrrolidin-2-yl)-N-isobutylacetamide] | 11.6 | >25.95 | > 300
CCCCCCCCCN1[C@H](CC(=O)NC)[C@H](O)[C@H](O)[C@H]1CO [Compound A011, 2-((2R,3S,4R,5R)-3,4-dihydroxy-5-(hydroxymethyl)-1-nonylpyrrolidin-2-yl)-N-methylacetamide] | 0.033 | >9174 | > 300
CNC(=O)C[C@@H]1[C@H](O)[C@H](O)[C@@H](CO)N1CCCCCCO [Compound A040, 2-((2R,3S,4R,5R)-3,4-dihydroxy-1-(6-hydroxyhexyl)-5-(hydroxymethyl)pyrrolidin-2-yl)-N-methylacetamide] | 0.045 | 3355 | 151
CCCCCCN1[C@H](CC(=O)NCCO)[C@H](O)[C@H](O)[C@H]1CO [Compound A028, 2-((2R,3S,4R,5R)-1-hexyl-3,4-dihydroxy-5-(hydroxymethyl)pyrrolidin-2-yl)-N-(2-hydroxyethyl)acetamide] | 215 | >1.39 | ≥ 300

Second part, the compound after the results:

IC50 [1] [µM] | Selectivity: IC50(human β-hexosaminidase)/IC50(Human OGA) [2] | IC50 [3] [µM] | Compound
3.9 | >76.92 | > 300 | CCCCCCN1[C@H](CNC(C)=O)[C@H](O)[C@H](O)[C@H]1CO [Compound A035, N-(((2R,3S,4R,5R)-1-hexyl-3,4-dihydroxy-5-(hydroxymethyl)pyrrolidin-2-yl)methyl)acetamide]
0.228 | 0.14 | 0.031 | CNC(=O)C[C@@H]1[C@@H](O)[C@H](O)[C@H](CO)N1CCCc1ccccc1 [Compound A058, 2-((2R,3R,4R,5S)-3,4-dihydroxy-5-(hydroxymethyl)-1-(3-phenylpropyl)pyrrolidin-2-yl)-N-methylacetamide]
4.39 | >68.34 | > 300 | CC(C)CNC(=O)C[C@@H]1[C@H](O)[C@H](O)[C@@H](CO)N1CCCc1ccccc1 [Compound A026, 2-((2R,3S,4R,5R)-3,4-dihydroxy-5-(hydroxymethyl)-1-(3-phenylpropyl)pyrrolidin-2-yl)-N-isobutylacetamide]
3.66 | >81 | > 300 | CCCCCCCCCN1[C@H](CC(=O)NC(C)C)[C@H](O)[C@H](O)[C@H]1CO [Compound A014, 2-((2R,3S,4R,5R)-3,4-dihydroxy-5-(hydroxymethyl)-1-nonylpyrrolidin-2-yl)-N-isopropylacetamide]
0.926 | 0.44 | 0.405 | CCCCCCN1[C@H](CO)[C@@H](O)[C@H](O)[C@@H]1CC(=O)NC [Compound A047, 2-((2S,3R,4R,5R)-1-hexyl-3,4-dihydroxy-5-(hydroxymethyl)pyrrolidin-2-yl)-N-methylacetamide]
0.048 | >6211 | > 300 | CCCCCCN1[C@H](CC(=O)NCCC)[C@H](O)[C@H](O)[C@H]1CO [Compound A023, 2-((2R,3S,4R,5R)-1-hexyl-3,4-dihydroxy-5-(hydroxymethyl)pyrrolidin-2-yl)-N-propylacetamide]
0.007 | 8342 | 58.4 | CNC(=O)C[C@@H]1[C@H](O)[C@H](O)[C@@H](CO)N1CCCNC(=O)OC(C)(C)C [Compound A065, tert-butyl (3-((2R,3R,4S,5R)-3,4-dihydroxy-2-(hydroxymethyl)-5-(2-(methylamino)-2-oxoethyl)pyrrolidin-1-yl)propyl)carbamate]
68 | >4.41 | > 300 | CCCCCCN1[C@H](CO)[C@@H](O)[C@@H](O)[C@@H]1CC(=O)NC [Compound A034, 2-((2S,3S,4R,5R)-1-hexyl-3,4-dihydroxy-5-(hydroxymethyl)pyrrolidin-2-yl)-N-methylacetamide]
0.0075 | 22133 | 166 | CCNC(=O)C[C@@H]1[C@@H](O)[C@H](O)[C@@H](CO)N1CCCc1ccc(S(=O)(=O)NCC)cc1 [Compound A070, N-ethyl-2-((2R,3R,4R,5R)-1-(3-(4-(N-ethylsulfamoyl)phenyl)propyl)-3,4-dihydroxy-5-(hydroxymethyl)pyrrolidin-2-yl)acetamide]
224 | >1.34 | > 300 | CCNC(=O)C[C@@H]1[C@@H](O)[C@H](O)[C@@H](CO)N1C(=O)CCc1ccccc1 [Compound A069, 2-((2R,3R,4R,5R)-3,4-dihydroxy-5-(hydroxymethyl)-1-(3-phenylpropanoyl)pyrrolidin-2-yl)-N-ethylacetamide]
0.007 | 4.27 | 0.0299 | CNC(=O)[C@H]1N[C@H](CO)[C@@H](O)[C@@H]1O [Compound A059, (2S,3R,4R,5R)-3,4-dihydroxy-5-(hydroxymethyl)-N-methylpyrrolidine-2-carboxamide]
1.59 | >188.68 | > 300 | C=CCNC(=O)C[C@@H]1[C@H](O)[C@H](O)[C@@H](CO)N1CCCCCC [Compound A039, N-allyl-2-((2R,3S,4R,5R)-1-hexyl-3,4-dihydroxy-5-(hydroxymethyl)pyrrolidin-2-yl)acetamide]
